Data reported in patent publication US20120077854A1, “COMPOSITIONS AND METHODS FOR MODULATING RETINOL BINDING TO RETINOL BINDING PROTEIN 4 (RBP4)” (priority 2009, published 2012).

Each molecule was assayed against RBP4 (Homo sapiens, UniProt P02753) (assay: HTRF competition assay: displacement of Cy5-labeled retinol from RBP4). Conditions: 10 nM biotin-labeled RBP4, streptavidin-Europium cryptate 1 nM, room temperature 30 min.
Format: binding
Protocol: To determine the binding affinity of test compounds for RBP4, a homogeneous time resolved fluorescence (HTRF) assay was developed. The assay was a competition experiment measuring the interaction of RBP4 with the known RBP4 ligand retinol. Cy5-labeled retinol was incubated with 10 nM biotin-labeled RBP4 protein and streptavidin-Europium cryptate (1 nM). Test or control compounds were added to the reaction mixture and incubated at room temperature for 30 min. The HTRF signal was determined by monitoring the emission at 665 nm and […]. The ratio between the 665 nM signal and the […] signal was used to determine the binding of Cy5-retinol to RBP4. The ability of test or control compounds to displace Cy5-retinol from RBP4 was used to determine their potency for RBP4. […]

Q: How did the IC50 turn out when `COC(=O)Cc1csc(-c2cc(C(F)(F)F)cc(C(F)(F)F)c2)n1` [Example 1, Methyl 2-(2-(3,5-bis(trifluoromethyl)phenyl)thiazol-4-yl)acetate] was run?
A: 2.43 µM

Q: `O=C(O)Cc1csc(-c2cc(C(F)(F)F)cc(C(F)(F)F)c2)n1` [Example 2, 2-(2-(3,5-Bis(trifluoromethyl)phenyl)thiazol-4-yl)acetic acid] was tested. Which IC50 did it give?
A: 0.085 µM

Q: Which IC50 does the source give for `COC(=O)Cc1nc(-c2cc(C(F)(F)F)cc(C(F)(F)F)c2)no1` [Example 3, Methyl 2-(3-(3,5-bis(trifluoromethyl)phenyl)-1,2,4-oxadiazol-5-yl)acetate] here?
A: 3.44 µM

Q: For `COC(=O)Cc1coc(-c2cc(C(F)(F)F)cc(C(F)(F)F)c2)n1` [Example 4, Methyl 2-(2-(3,5-bis(trifluoromethyl)phenyl)oxazol-4-yl)acetate], which IC50 is on record?
A: 2.85 µM

Q: How did the IC50 turn out when `COC(=O)Cc1nc(-c2cc(C(F)(F)F)cc(C(F)(F)F)c2)co1` [Example 5, Methyl 2-(4-(3,5-bis(trifluoromethyl)phenyl)oxazol-2-yl)acetate] was run?
A: 0.924 µM

Q: How did the IC50 turn out when `O=C(O)Cc1coc(-c2cc(C(F)(F)F)cc(C(F)(F)F)c2)n1` [Example 6, 2-(2-(3,5-Bis(trifluoromethyl)phenyl)oxazol-4-yl) acetic acid] was run?
A: 0.093 µM

Q: For `O=C(O)Cc1nc(-c2cc(C(F)(F)F)cc(C(F)(F)F)c2)co1` [Example 7, 2-(4-(3,5-Bis(trifluoromethyl)phenyl)oxazol-2-yl)acetic acid], which IC50 is on record?
A: 0.031 µM

Q: With `O=C(O)Cc1csc(-c2cc(Cl)cc(C(F)(F)F)c2)n1` [Example 8, 2-(2-(3-Chloro-5-(trifluoromethyl)phenyl)thiazol-4-yl)acetic acid] as the molecule, how does the IC50 read?
A: 0.088 µM

Q: With `Cc1sc(CC(=O)O)nc1-c1cc(C(F)(F)F)cc(C(F)(F)F)c1` [Example 9, 2-(4-(3,5-Bis(trifluoromethyl)phenyl)-5-methylthiazol-2-yl)acetic acid] as the molecule, how does the IC50 read?
A: 0.232 µM

Q: How did the IC50 turn out when `O=C(O)Cc1csc(-c2ccc(Cl)c(C(F)(F)F)c2)n1` [Example 10, 2-(2-(4-Chloro-3-(trifluoromethyl)phenyl)thiazol-4-yl)acetic acid] was run?
A: 0.063 µM

Q: For `Cc1oc(CC(=O)O)nc1-c1cc(C(F)(F)F)cc(C(F)(F)F)c1` [Example 11, 2-(4-(3,5-Bis(trifluoromethyl)phenyl)-5-methyloxazol-2-yl)acetic acid], which IC50 is on record?
A: 1.59 µM

Q: For `O=C(O)Cc1nc(-c2cc(F)cc(C(F)(F)F)c2)co1` [Example 12, 2-(4-(3-Fluoro-5-(trifluoromethyl)phenyl)oxazol-2-yl)acetic acid], which IC50 is on record?
A: 0.073 µM

Q: `O=C(O)Cc1nc(-c2cc(F)cc(C(F)(F)F)c2)cs1` [Example 13, 2-(4-(3-Fluoro-5-(trifluoromethyl)phenyl)thiazol-2-yl)acetic acid] was tested. Which IC50 did it give?
A: 0.091 µM

Q: `COc1cc(-c2nc(CC(=O)O)cs2)cc(C(F)(F)F)c1` [Example 14, 2-(2-(3-Methoxy-5-(trifluoromethyl)phenyl)thiazol-4-yl)acetic acid] was tested. Which IC50 did it give?
A: 0.088 µM

Q: `COc1cc(-c2nc(CC(=O)O)co2)cc(C(F)(F)F)c1` [Example 15, 2-(2-(3-Methoxy-5-(trifluoromethyl)phenyl)oxazol-4-yl)acetic acid] was tested. Which IC50 did it give?
A: 0.248 µM

Q: For `O=C(O)C(O)c1csc(-c2cc(C(F)(F)F)cc(C(F)(F)F)c2)n1` (stereo not drawn) [Example 16, 2-(2-(3,5-Bis(trifluoromethyl)phenyl)thiazol-4-yl)-2-hydroxyacetic acid], which IC50 is on record?
A: 0.141 µM

Q: `Cc1ccc(-c2nc(CC(=O)O)cs2)cc1C(F)(F)F` [Example 17, 2-(2-(4-Methyl-3-(trifluoromethyl)phenyl)thiazol-4-yl)acetic acid] was tested. Which IC50 did it give?
A: 0.086 µM

Q: For `O=C(O)Cc1csc(-c2ccc(F)c(C(F)(F)F)c2)n1` [Example 18, 2-(2-(4-Fluoro-3-(trifluoromethyl)phenyl)thiazol-4-yl)acetic acid], which IC50 is on record?
A: 0.44 µM

Q: For `O=C(O)Cc1coc(-c2cc(F)cc(C(F)(F)F)c2)n1` [Example 19, 2-(2-(3-Fluoro-5-(trifluoromethyl)phenyl)oxazol-4-yl)acetic acid], which IC50 is on record?
A: 0.658 µM

Q: Which IC50 does the source give for `O=C(O)Cc1csc(-c2cc(F)cc(C(F)(F)F)c2)n1` [Example 20, 2-(2-(3-Fluoro-5-(trifluoromethyl)phenyl)thiazol-4-yl)acetic acid] here?
A: 0.168 µM

Q: `O=C(O)Cc1csc(-c2cc(C(F)(F)F)ccc2Cl)n1` [Example 21, 2-(2-(2-Chloro-5-(trifluoromethyl)phenyl)thiazol-4-yl)acetic acid] was tested. Which IC50 did it give?
A: 1.05 µM

Q: With `O=C(O)Cc1coc(-c2cccc(C(F)(F)F)c2Cl)n1` [Example 22, 2-(2-(2-Chloro-3-(trifluoromethyl)phenyl)oxazol-4-yl)acetic acid] as the molecule, how does the IC50 read?
A: 1.66 µM

Q: Which IC50 does the source give for `COc1ccc(-c2nc(CC(=O)O)co2)cc1C(F)(F)F` [Example 23, 2-(2-(4-Methoxy-3-(trifluoromethyl)phenyl)oxazol-4-yl)acetic acid] here?
A: 0.175 µM

Q: `O=C(O)Cc1coc(-c2ccc(F)c(C(F)(F)F)c2)n1` [Example 24, 2-(2-(4-Fluoro-3-(trifluoromethyl)phenyl)oxazol-4-yl)acetic acid] was tested. Which IC50 did it give?
A: 0.721 µM

Q: Which IC50 does the source give for `O=C(O)Cc1cc(-c2ccc(Cl)c(C(F)(F)F)c2)no1` [Example 25, 2-(3-(4-Chloro-3-(trifluoromethyl)phenyl)isoxazol-5-yl)acetic acid] here?
A: 0.285 µM

Q: How did the IC50 turn out when `COc1ccc(-c2nc(CC(=O)O)cs2)cc1C(F)(F)F` [Example 26, 2-(2-(4-Methoxy-3-(trifluoromethyl)phenyl)thiazol-4-yl)acetic acid] was run?
A: 0.193 µM

Q: With `O=C(O)Cc1csc(-c2cccc(C(F)(F)F)c2Cl)n1` [Example 27, 2-(2-(2-Chloro-3-(trifluoromethyl)phenyl)thiazol-4-yl)acetic acid] as the molecule, how does the IC50 read?
A: 2.38 µM

Q: How did the IC50 turn out when `O=C(O)Cc1csc(-c2cc(Br)cc(C(F)(F)F)c2)n1` [Example 28, 2-(2-(3-Bromo-5-(trifluoromethyl)phenyl)thiazol-4-yl)acetic acid] was run?
A: 0.05 µM

Q: With `O=C(O)Cc1coc(-c2cc(F)c(F)c(C(F)(F)F)c2)n1` [Example 29, 2-(2-(3,4-Difluoro-5-(trifluoromethyl)phenyl)oxazol-4-yl)acetic acid] as the molecule, how does the IC50 read?
A: 0.263 µM

Q: Which IC50 does the source give for `O=C(O)Cc1csc(-c2cc(F)c(F)c(C(F)(F)F)c2)n1` [Example 30, 2-(2-(3,4-Difluoro-5-(trifluoromethyl)phenyl)thiazol-4-yl)acetic acid] here?
A: 0.086 µM

Q: Which IC50 does the source give for `O=C(O)Cc1csc(-c2cc(C(F)F)cc(C(F)(F)F)c2)n1` [Example 32, 2-(2-(3-(Difluoromethyl)-5-(trifluoromethyl)phenyl)thiazol-4-yl)acetic acid] here?
A: 0.134 µM

Q: How did the IC50 turn out when `O=C(O)c1nc(-c2cc(C(F)(F)F)cc(C(F)(F)F)c2)cs1` [Example 33, 4-(3,5-Bis-trifluoromethyl-phenyl)-thiazole-2-carboxylic acid] was run?
A: 1.06 µM

Q: For `FC(F)(F)c1cc(-c2nc(Cc3nn[nH]n3)cs2)cc(C(F)(F)F)c1` [Example 34, 5-[2-(3,5-Bis-trifluoromethyl-phenyl)-thiazol-4-ylmethyl]-2H-tetrazole], which IC50 is on record?
A: 0.098 µM

Q: With `FC(F)(F)c1cc(-c2nc(Cc3nn[nH]n3)cs2)ccc1Cl` [Example 35, 5-[2-(4-Chloro-3-trifluoromethyl-phenyl)-thiazol-4-ylmethyl]-2H-tetrazole] as the molecule, how does the IC50 read?
A: 0.196 µM

Q: For `O=C(O)Cc1coc(-c2cc(C(F)(F)F)ccc2Cl)n1` [Example 36, 2-(2-(2-Chloro-5-(trifluoromethyl)phenyl)oxazol-4-yl)acetic acid], which IC50 is on record?
A: 8.82 µM

Q: With `O=C(O)Cc1coc(-c2cc(Br)cc(C(F)(F)F)c2)n1` [Example 37, 2-(2-(3-Bromo-5-(trifluoromethyl)phenyl)oxazol-4-yl)acetic acid] as the molecule, how does the IC50 read?
A: > 10 µM
